Experimental data: ChEMBL document CHEMBL6092191, “Advancing Cancer Immunotherapy through Engineering New PD-L1 Degraders: A Comprehensive Study from Small Molecules to PD-L1-Specific Peptide-Drug Conjugates” (J Med Chem, 2024)
Activity calls are given as the source filed them. The calls are words filed in the database; no cut-off is given here.

Experiments:
[1] = Drug uptake in human PC-9 cells at 10 uM by fluorescence microscopy; assay type: ADME, cell-based; conditions: pc-9, 10 µM
[2] = biological target: COP9 signalosome complex subunit 5 (Homo sapiens) (UniProt Q92905); assay: Induction of PD-L1 degradation in human NCI-H460 cells at 10 uM incubated for 24 hrs by Western blot analysis; assay type: cell-based
Chain of COP9 signalosome complex subunit 5 (Homo sapiens) (Q92905 2-334 limits assumed, one chain of several): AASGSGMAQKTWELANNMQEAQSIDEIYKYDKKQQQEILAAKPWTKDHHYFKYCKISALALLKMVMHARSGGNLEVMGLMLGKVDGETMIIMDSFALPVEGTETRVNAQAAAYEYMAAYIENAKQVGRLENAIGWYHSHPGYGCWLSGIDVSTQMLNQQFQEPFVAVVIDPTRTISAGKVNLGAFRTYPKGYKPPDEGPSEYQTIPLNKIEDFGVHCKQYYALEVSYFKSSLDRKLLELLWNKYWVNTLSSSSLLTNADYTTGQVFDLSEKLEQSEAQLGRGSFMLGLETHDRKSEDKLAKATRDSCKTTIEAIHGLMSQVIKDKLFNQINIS

[3] = system: HEK-293T; assay: Antiproliferative activity against HEK293T cells at 10 uM incubated for 4 days; assay type: toxicity, cell-based; conditions: human, 96 h, time 4 day
[4] = Antiproliferative activity against human HTori-3 cells at 10 uM incubated for 4 days; assay type: toxicity, cell-based; conditions: htori-3, 96 h, time 4 day
[5] = biological target: COP9 signalosome complex subunit 5 (Homo sapiens) (UniProt Q92905); assay: Induction of PD-L1 degradation in human NCI-H460 cells at 10 uM incubated for 2 days by Western blot analysis; assay type: cell-based; conditions: time 2.0 day
[6] = system: 3T3-L1; assay: Antiproliferative activity against mouse 3T3-L1 cells at 10 uM incubated for 4 days; assay type: toxicity, cell-based; conditions: 3t3-l1, 96 h, time 4 day
[7] = Toxicity in C57BL/6 mouse model xenografted with […] cells assessed as change in BUN level at 10 mg/kg, ip administered daily for 10 days; assay type: organism-based, Blood; conditions: in vivo, 240 h, time 10 day
[8] = Toxicity in C57BL/6 mouse model xenografted with […] cells assessed as body weight loss at 10 mg/kg, ip administered daily for 10 days; assay type: organism-based; conditions: in vivo, 240 h, time 10 day
[9] = system: Lewis lung carcinoma cell line; assay: Antitumor T-cell immune response in Lewis lung carcinoma cells xenografted in C57BL/6 mouse model assessed as increase in ratio of CD8+ to CD4+ T cells in tumor at 10 mg/kg, ip administered daily for 10 days by flow cytometry; assay type: functional, organism-based; conditions: time 10.0 day
[10] = Toxicity in C57BL/6 mouse model xenografted with […] cells assessed as change in ALT level at 10 mg/kg, ip administered daily for 10 days; assay type: organism-based, Blood; conditions: in vivo, 240 h, time 10 day
[11] = system: Lewis lung carcinoma cell line; assay: Anticancer activity against Lewis lung carcinoma cells xenografted in C57BL/6 mouse model assessed as tumor growth inhibition at 10 mg/kg, ip administered daily for 10 days; assay type: functional, organism-based; conditions: time 10.0 day
[12] = Toxicity in C57BL/6 mouse model xenografted with […] cells assessed as change in AST level at 10 mg/kg, ip administered daily for 10 days; assay type: organism-based, Blood; conditions: in vivo, 240 h, time 10 day
[13] = system: Lewis lung carcinoma cell line; assay: Antitumor T-cell immune response in Lewis lung carcinoma cells xenografted in C57BL/6 mouse model assessed as increase in GrB level in tumor at 10 mg/kg, ip administered daily for 10 days by ELISA; assay type: functional, organism-based; conditions: time 10.0 day
[14] = Toxicity in C57BL/6 mouse model xenografted with […] cells assessed as obvious damage in lung at 10 mg/kg, ip administered daily for 10 days by H and E staining based analysis; assay type: organism-based; conditions: in vivo, 240 h, time 10 day
[15] = Toxicity in C57BL/6 mouse model xenografted with […] cells assessed as obvious damage in heart at 10 mg/kg, ip administered daily for 10 days by H and E staining based analysis; assay type: organism-based; conditions: in vivo, 240 h, time 10 day
[16] = Toxicity in C57BL/6 mouse model xenografted with […] cells assessed as change in serum creatinine level at 10 mg/kg, ip administered daily for 10 days; assay type: organism-based; conditions: in vivo, 240 h, time 10 day
[17] = system: Lewis lung carcinoma cell line; assay: Antitumor T-cell immune response in Lewis lung carcinoma cells xenografted in C57BL/6 mouse model assessed as increase in TNF-alpha level in tumor at 10 mg/kg, ip administered daily for 10 days by ELISA; assay type: functional, organism-based; conditions: time 10.0 day
[18] = Toxicity in C57BL/6 mouse model xenografted with […] cells assessed as obvious damage in liver at 10 mg/kg, ip administered daily for 10 days by H and E staining based analysis; assay type: organism-based; conditions: in vivo, 240 h, time 10 day
[19] = Toxicity in C57BL/6 mouse model xenografted with […] cells assessed as obvious damage in kidney at 10 mg/kg, ip administered daily for 10 days by H and E staining based analysis; assay type: organism-based; conditions: in vivo, 240 h, time 10 day
[20] = system: Lewis lung carcinoma cell line; assay: Antitumor T-cell immune response in Lewis lung carcinoma cells xenografted in C57BL/6 mouse model assessed as increase in CD3+ CD8+ infiltration in CD45+ T cells in tumor at 10 mg/kg, ip administered daily for 10 days by flow cytometry; assay type: functional, organism-based; conditions: time 10.0 day
[21] = Toxicity in C57BL/6 mouse model xenografted with […] cells assessed as obvious damage in spleen at 10 mg/kg, ip administered daily for 10 days by H and E staining based analysis; assay type: organism-based; conditions: in vivo, 240 h, time 10 day
[22] = system: Lewis lung carcinoma cell line; assay: Antitumor T-cell immune response in Lewis lung carcinoma cells xenografted in C57BL/6 mouse model assessed as increase in IFN-gamma level in tumor at 10 mg/kg, ip administered daily for 10 days by ELISA; assay type: functional, organism-based; conditions: time 10.0 day
[23] = system: Lewis lung carcinoma cell line; assay: Antitumor T-cell immune response in Lewis lung carcinoma cells xenografted in C57BL/6 mouse model assessed as decrease in CD3+ CD4+ population in CD45+ T cells in tumor at 10 mg/kg, ip administered daily for 10 days by flow cytometry; assay type: functional, organism-based; conditions: time 10.0 day
[24] = system: Lewis lung carcinoma cell line; assay: Anticancer activity against Lewis lung carcinoma cells xenografted in C57BL/6 mouse model at 10 mg/kg, ip administered daily for 10 days relative to control; assay type: functional; conditions: 240 h, time 10 day, read-out: TGI
[25] = system: Lewis lung carcinoma cell line; assay: Antitumor T-cell immune response in Lewis lung carcinoma cells xenografted in C57BL/6 mouse model assessed as increase in ratio of CD8+ to CD4+ T cells in tumor at 24.5 mg/kg, ip administered daily for 8 days by flow cytometry; assay type: functional, organism-based; conditions: time 8.0 day
[26] = system: Lewis lung carcinoma cell line; assay: Antitumor activity against Lewis lung carcinoma cells xenografted in C57BL/6 mouse model at 24.5 mg/kg, ip administered daily for 8 days relative to control; assay type: functional; conditions: 192 h, time 8 day, read-out: TGI
[27] = system: Mus musculus; assay: Biodistribution in C57BL/6 mouse model bearing […] lung carcinoma cells assessed as increase in fluorescence signal in tumor at 2 mg/kg, iv measured 4 hrs post-injection by IVIS analysis; assay type: ADME, organism-based; conditions: in vivo
[28] = biological target: COP9 signalosome complex subunit 5 (Homo sapiens) (UniProt Q92905); assay: Induction of PD-L1 degradation in human NCI-H460 cells at 10 uM by Western blot analysis; assay type: cell-based; conditions: time <= 36.0 hrs

COc1ccc2cc3[n+](cc2c1OC)CCc1cc2c(cc1-3)OCO2.[Cl-] [BERBERINE CHLORIDE]
Drug uptake [1]: Time-dependent-effect | Activity [2]: Active

COc1ccc2cc3[n+](cc2c1OCCCN)CCc1cc2c(cc1-3)OCO2.[Cl-]
Drug uptake [1]: Time-dependent-effect | Activity [2]: Active

COc1cc2c(cc1OC)-c1cc3ccc(OC)c(OCCNC(=O)OCc4ccc(SSC[C@H](N)C(=O)NCCCCCC(=O)N[C@@H](CC(N)=O)C(=O)N[C@@H](Cc5ccc(O)cc5)C(=O)N[C@@H](CO)C(=O)N[C@@H](CCCCN)C(=O)N5CCC[C@H]5C(=O)N[C@H](C(=O)N[C@@H](CC(=O)O)C(=O)N[C@@H](CCCNC(=N)N)C(=O)N[C@@H](CCC(N)=O)C(=O)N[C@@H](Cc5ccc(O)cc5)C(=O)N[C@@H](Cc5cnc[nH]5)C(=O)N[C@@H](Cc5ccccc5)C(=O)O)[C@@H](C)O)cc4)c3c[n+]1CC2.[Cl-]
Activity [3]: Toxic | Activity [4]: Toxic | Activity [5]: Active | Activity [6]: Toxic

COc1cc2c(cc1OC)-c1cc3ccc(OC)c(OCCCCCN)c3c[n+]1CC2.[Cl-]
Activity [7]: Non-toxic | Activity [8]: Non-toxic | Activity [9]: Active | Activity [10]: Non-toxic | Activity [11]: Active | Activity [12]: Non-toxic | Drug uptake [1]: Time-dependent-effect | Activity [2]: Active | Activity [13]: Active | Activity [14]: Non-toxic | Activity [15]: Non-toxic | Activity [16]: Non-toxic | Activity [17]: Active | Activity [18]: Non-toxic | Activity [19]: Non-toxic | Activity [20]: Active | Activity [21]: Non-toxic | Activity [22]: Active | Activity [23]: Active | inhibition in vivo at 10 mg/kg [24]: 68%

COc1ccc2cc3[n+](cc2c1OCCN)CCc1cc2c(cc1-3)OCO2.[Cl-]
Drug uptake [1]: Time-dependent-effect | Activity [2]: inactive

COc1ccc2cc3[n+](cc2c1OCCCCCN)CCc1cc2c(cc1-3)OCO2.[Cl-]
Drug uptake [1]: Time-dependent-effect | Activity [2]: Active

C[C@@H](O)[C@H](NC(=O)[C@@H]1CCCN1C(=O)[C@H](CCCCN)NC(=O)[C@H](CO)NC(=O)[C@H](Cc1ccc(O)cc1)NC(=O)[C@H](CC(N)=O)NC(=O)CCCCCNC(=O)[C@@H](N)CS)C(=O)N[C@@H](CC(=O)O)C(=O)N[C@@H](CCCNC(=N)N)C(=O)N[C@@H](CCC(N)=O)C(=O)N[C@@H](Cc1ccc(O)cc1)C(=O)N[C@@H](Cc1cnc[nH]1)C(=O)N[C@@H](Cc1ccccc1)C(=O)O
Activity [25]: Active | inhibition in vivo at 24.5 mg/kg [26]: 37% | Activity [3]: Non-toxic | Activity [4]: Non-toxic | Activity [5]: inactive | Activity [6]: Non-toxic

CCN1/C(=C/C=C/C=C/C2=[N+](CCCCCC(=O)NCCN3C(=O)CC(SC[C@H](N)C(=O)NCCCCCC(=O)N[C@@H](CC(N)=O)C(=O)N[C@@H](Cc4ccc(O)cc4)C(=O)N[C@@H](CO)C(=O)N[C@@H](CCCCN)C(=O)N4CCC[C@H]4C(=O)N[C@H](C(=O)N[C@@H](CC(=O)O)C(=O)N[C@@H](CCCNC(=N)N)C(=O)N[C@@H](CCC(N)=O)C(=O)N[C@@H](Cc4ccc(O)cc4)C(=O)N[C@@H](Cc4cnc[nH]4)C(=O)N[C@@H](Cc4ccccc4)C(=O)O)[C@@H](C)O)C3=O)c3ccc(S(=O)(=O)O)cc3C2(C)C)C(C)(C)c2cc(S(=O)(=O)O)ccc21 (stereo partly drawn)
Drug uptake [27]: Active

COc1cc2c(cc1OC)-c1cc3ccc(OC)c(OCCCN)c3c[n+]1CC2.[Cl-]
Activity [7]: Non-toxic | Activity [8]: Non-toxic | Activity [9]: Active | Activity [10]: Non-toxic | Activity [11]: Active | Activity [12]: Non-toxic | Drug uptake [1]: Time-dependent-effect | Activity [2]: Active | Activity [13]: Active | Activity [14]: Non-toxic | Activity [15]: Non-toxic | Activity [16]: Non-toxic | Activity [17]: Active | Activity [18]: Non-toxic | Activity [19]: Non-toxic | Activity [20]: Active | Activity [21]: Non-toxic | Activity [22]: Active | Activity [23]: Active | inhibition in vivo at 10 mg/kg [24]: 65%

COc1ccc2cc3[n+](cc2c1OCCOCCOCCN)CCc1cc2c(cc1-3)OCO2.[Cl-]
Drug uptake [1]: Time-dependent-effect | Activity [2]: Active

COc1cc2c(cc1OC)-c1cc3ccc(OC)c(OC)c3c[n+]1CC2.[Cl-] [PALMATINE CHLORIDE]
Activity [7]: Non-toxic | Activity [8]: Non-toxic | Activity [9]: Active | Activity [10]: Non-toxic | Activity [11]: Active; Highest Efficacy Of Tumor Growth Suppression Among Pmt Derivatives | Activity [12]: Non-toxic | Drug uptake [1]: Time-dependent-effect | Activity [2]: Active | Activity [13]: Active | Activity [14]: Non-toxic | Activity [15]: Non-toxic | Activity [16]: Non-toxic | Activity [17]: Active | Activity [18]: Non-toxic | Activity [19]: Non-toxic | Activity [20]: Active | Activity [21]: Non-toxic | Activity [22]: Active | Activity [23]: Active

COc1cc2c(cc1OC)-c1cc3ccc(OC)c(OCCOCCOCCN)c3c[n+]1CC2.[Cl-]
Drug uptake [1]: Time-dependent-effect | Activity [2]: Active

COc1cc2c(cc1OC)-c1cc3ccc(OC)c(OCCNC(=O)CCCC[C@@H]4SC[C@@H]5NC(=O)N[C@@H]54)c3c[n+]1CC2
Activity [28]: Active
